From patent US11098035B2, “Compounds, compositions, and methods for increasing CFTR activity” (Proteostasis Therapeutics, Inc., priority 2014, dated 2021)

Target: T1, ΔF508-CFTR (Homo sapiens, UniProt P13569, DEL508-508)
T1 construct: Primary lung epithelial cells homozygous for the Cystic Fibrosis-causing ΔF508 mutation were differentiated for a minimum of 4 weeks; endogenous in cells; host or cells: primary human bronchial (lung) epithelial cells (hBE) homozygous for ΔF508, differentiated at an air-liquid interface
T1 sequence (P13569 with tags, fused parts or gaps DEL508-508): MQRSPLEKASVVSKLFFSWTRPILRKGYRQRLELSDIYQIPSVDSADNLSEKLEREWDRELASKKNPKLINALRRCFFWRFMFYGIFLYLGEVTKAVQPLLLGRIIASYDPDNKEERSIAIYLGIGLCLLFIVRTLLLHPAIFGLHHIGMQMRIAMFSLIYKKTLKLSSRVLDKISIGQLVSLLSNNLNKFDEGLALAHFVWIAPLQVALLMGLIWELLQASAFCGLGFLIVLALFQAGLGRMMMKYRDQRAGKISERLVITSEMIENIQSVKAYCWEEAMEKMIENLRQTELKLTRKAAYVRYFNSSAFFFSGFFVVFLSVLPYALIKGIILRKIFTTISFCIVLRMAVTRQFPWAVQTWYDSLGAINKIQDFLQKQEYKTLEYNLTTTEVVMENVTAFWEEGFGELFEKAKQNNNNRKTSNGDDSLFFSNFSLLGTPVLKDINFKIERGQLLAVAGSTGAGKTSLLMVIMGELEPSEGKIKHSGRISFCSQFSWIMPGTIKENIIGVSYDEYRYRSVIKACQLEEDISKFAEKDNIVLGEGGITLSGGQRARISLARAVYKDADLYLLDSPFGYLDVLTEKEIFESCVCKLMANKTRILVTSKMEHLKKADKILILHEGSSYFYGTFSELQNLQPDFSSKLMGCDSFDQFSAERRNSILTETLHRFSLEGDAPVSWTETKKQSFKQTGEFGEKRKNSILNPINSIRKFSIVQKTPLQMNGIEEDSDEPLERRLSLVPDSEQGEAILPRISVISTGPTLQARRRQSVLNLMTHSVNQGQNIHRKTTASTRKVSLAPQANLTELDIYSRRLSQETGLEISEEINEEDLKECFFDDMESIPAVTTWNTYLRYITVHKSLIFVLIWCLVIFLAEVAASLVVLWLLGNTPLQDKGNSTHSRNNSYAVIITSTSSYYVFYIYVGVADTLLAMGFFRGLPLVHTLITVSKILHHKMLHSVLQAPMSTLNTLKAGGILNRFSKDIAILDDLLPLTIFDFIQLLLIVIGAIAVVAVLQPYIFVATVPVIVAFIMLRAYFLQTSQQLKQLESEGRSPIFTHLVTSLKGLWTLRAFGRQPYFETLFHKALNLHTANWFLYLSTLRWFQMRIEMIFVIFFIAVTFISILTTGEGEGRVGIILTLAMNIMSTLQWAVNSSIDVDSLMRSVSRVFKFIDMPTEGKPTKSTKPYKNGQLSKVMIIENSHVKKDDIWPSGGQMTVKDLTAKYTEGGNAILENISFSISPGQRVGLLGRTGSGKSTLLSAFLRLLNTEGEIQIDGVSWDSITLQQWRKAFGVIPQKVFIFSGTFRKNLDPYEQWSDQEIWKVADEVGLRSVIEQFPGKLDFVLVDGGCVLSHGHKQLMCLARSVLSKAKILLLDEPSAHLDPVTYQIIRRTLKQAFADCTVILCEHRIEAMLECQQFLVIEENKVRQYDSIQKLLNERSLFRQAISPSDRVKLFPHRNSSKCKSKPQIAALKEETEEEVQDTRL
Experiment: hBE Equivalent Current (Ieq) Assay
Assay type: cell-based
Conditions: AUC of equivalent chloride current, primary lung epithelial cells homozygous for ΔF508, 24 h treatment
Method: Primary lung epithelial cells homozygous for the Cystic Fibrosis-causing ΔF508 mutation were differentiated for a minimum of 4 weeks in an air-liquid interface on Costar 24 well HTS filter plates prior to the equivalent current (Ieq) measurements. Cells were apically mucus-washed for 30 minutes 24 h prior to treatment with compounds. The basolateral media was removed and replaced with media containing the compound of interest diluted to its final concentration from DMSO stocks. Treated cells were incubated at 37° C. and 5% CO2 for 24 hours. At the end of the treatment period, the media was changed to the Ieq experimental solution for 30 minutes before the experiment and plates are maintained in a CO2-free incubator during this period. The plates containing the cells were then placed in pre-warmed heating blocks at 36° C.±0.5 for 15 minutes before measurements are taken. The transepithelial voltage (VT) and conductance (GT) were measured using a custom 24 channel current clamp (TECC-24) with 24 well electrode manifold. The Ieq assay measurements were made following additions with standardized time periods: • 1. The baseline VT and GT values were measured for approximately 20 minutes. • 2. Benzamil was added to block ENaC for 15 minutes. • 3. Forskolin plus VX-770 were added to maximally activate ΔF508-CFTR for 27 minutes. • 4. Bumetanide was added to inhibit the NaK2Cl cotransporter and shut-off secretion of chloride.
The activity data captured was the area under the curve (AUC) for the traces of the equivalent chloride current. The AUC was collected from the time of the forskolin/VX-770 addition until the inhibition by bumetanide addition. Correction in response to compound treatment was scored as the increase in the AUC for compound-treated samples over that of vehicle-treated samples.
The results are shown below in Table 2. ++ indicates activity ≥25% run at 10 uM of VX-809 at 1 uM, + indicates activity 10 to <25% run at 10 uM of VX-809 at 1 uM, **indicates activity ≥200% of VX-809 (1 uM) with compound at 10 uM and VX-809 at 1 uM; * indicates activity 100-200% of VX-809 (1 uM) with compound at 10 uM and VX-809 at 1 uM. ^## indicates activity ≥200% of VX-809 (3 uM) with compound at 10 uM and VX-809 at 3 uM; ^# indicates activity 100-200% of VX-809 (3 uM) with compound at 10 uM and VX-809 at 3 uM.

[1] = compound at 10 uM and VX-809 at 1 uM, activity as % of VX-809 (1 uM)
[2] = compound run at 10 uM, activity relative to VX-809 at 1 uM

## C[C@@H](O)c1nnc(C[C@H]2C[C@@H](NC(=O)c3cc(-c4cccs4)no3)C2)o1 [Example 45, N-[(1s,3s)-3-([5-[(1R)-1-Hydroxyethyl]-1,3,4-oxadiazol-2-yl]methyl)cyclobutyl]-3-(thiophen-2-yl)-1,2-oxazole-5-carboxamide]
[1]
  Ieq: * (* indicates activity 100-200% of VX-809 (1 uM) with compound at 10 uM and VX-809 at 1 uM)

## CC(OCC(F)(F)F)c1nnc(C2CC(NC(=O)c3cc(-c4ccccc4)no3)C2)o1 (single isomer, unassigned) [Example 15]
[1]
  Ieq: * (* indicates activity 100-200% of VX-809 (1 uM) with compound at 10 uM and VX-809 at 1 uM)

## C[C@@H](O)c1nnc(CC2CC(NC(=O)c3cc(-c4ccccc4)no3)C2)s1 (stereo partly drawn) [Example 42, 3-Phenyl-N-[(1r,3r)-3-([5-[(1R)-1-hydroxyethyl]-1,3,4-thiadiazol-2-yl]methyl)cyclobutyl]-1,2-oxazole-5-carboxamide]
[1]
  Ieq: * (* indicates activity 100-200% of VX-809 (1 uM) with compound at 10 uM and VX-809 at 1 uM)

## CO[C@H](C)c1nnc([C@H]2C[C@H](NC(=O)c3cc(-c4ccccc4)no3)C2)o1 [Example 14, N-(trans-3-(5-((R)-1-methoxyethyl)-1,3,4-oxadiazol-2-yl)cyclobutyl)-3-phenylisoxazole-5-carboxamide]
[1]
  Ieq: * (* indicates activity 100-200% of VX-809 (1 uM) with compound at 10 uM and VX-809 at 1 uM)

## C[C@@H](OCC1CN(C)C1)c1nnc([C@H]2C[C@H](NC(=O)c3cc(-c4ccccc4)no3)C2)o1 [Example 20, N-(trans-3-(5-((R)-1-((1-methylazetidin-3-yl)methoxy)ethyl)-1,3,4-oxadiazol-2-yl)cyclobutyl)-3-phenylisoxazole-5-carboxamide]
[1]
  Ieq: * (* indicates activity 100-200% of VX-809 (1 uM) with compound at 10 uM and VX-809 at 1 uM)

## O=C(N[C@H]1C[C@H](c2nnc(C3CN(CC4CCC4)C3)o2)C1)c1cc(-c2ccccc2)no1 [Example 27, N-(trans-3-(5-(1-(cyclobutylmethyl)azetidin-3-yl)-1,3,4-oxadiazol-2-yl)cyclobutyl)-3-phenylisoxazole-5-carboxamide]
[1]
  Ieq: * (* indicates activity 100-200% of VX-809 (1 uM) with compound at 10 uM and VX-809 at 1 uM)

## O=C(N[C@H]1C[C@H](c2nnc(C3CS(=O)(=O)C3)o2)C1)c1cc(-c2ccccc2)no1 [Example 23, N-(trans-3-(5-(1,1-dioxidothietan-3-yl)-1,3,4-oxadiazol-2-yl)cyclobutyl)-3-phenylisoxazole-5-carboxamide]
[1]
  Ieq: * (* indicates activity 100-200% of VX-809 (1 uM) with compound at 10 uM and VX-809 at 1 uM)

## COCCNC(=O)c1cc(-c2ccccc2)co1 [Example 8, N-(2-methoxyethyl)-4-phenylfuran-2-carboxamide]
[2]
  Ieq: + (+ indicates activity 10 to <25% run at 10 uM of VX-809 at 1 uM)

## C[C@@H](O)c1nnc(C[C@H]2C[C@H](NC(=O)c3cc(-c4cccs4)no3)C2)o1 [Example 46, N-[(1r,3r)-3-([5-[(1R)-1-Hydroxyethyl]-1,3,4-oxadiazol-2-yl]methyl)cyclobutyl]-3-(thiophen-2-yl)-1,2-oxazole-5-carboxamide]
[1]
  Ieq: * (* indicates activity 100-200% of VX-809 (1 uM) with compound at 10 uM and VX-809 at 1 uM)

## O=C(NC1CC(c2nnc(C3COC3)o2)C1)c1cc(-c2ccccc2)no1 (stereo not drawn) [Example 22, N-trans-3-(5-(oxetan-3-yl)-1,3,4-oxadiazol-2-yl)cyclobutyl)-3-phenylisoxazole-5-carboxamide]
[1]
  Ieq: * (* indicates activity 100-200% of VX-809 (1 uM) with compound at 10 uM and VX-809 at 1 uM)

## COCCNC(=O)c1cc(-c2ccccc2)no1 [Example 1, N-(2-methoxyethyl)-3-phenylisoxazole-5-carboxamide]
[2]
  Ieq: ++ (++ indicates activity ≥25% run at 10 uM of VX-809 at 1 uM)

## CC(OC1CCC1)c1nnc([C@H]2C[C@H](NC(=O)c3cc(-c4ccccc4)no3)C2)o1 (relative stereo) [Example 17, N-(trans-3-(5-(1-cyclobutoxyethyl)-1,3,4-oxadiazol-2-yl)cyclobutyl)-3-phenylisoxazole-5-carboxamide]
[1]
  Ieq: * (* indicates activity 100-200% of VX-809 (1 uM) with compound at 10 uM and VX-809 at 1 uM)

## O=C(NC1CC1)c1cc(-c2ccccc2)co1 [Example 12, N-cyclopropyl-4-phenylfuran-2-carboxamide]
[1]
  Ieq: * (* indicates activity 100-200% of VX-809 (1 uM) with compound at 10 uM and VX-809 at 1 uM)
[2]
  Ieq: ++ (++ indicates activity ≥25% run at 10 uM of VX-809 at 1 uM)

## O=C(N[C@H]1C[C@@H](n2cc(CO)nn2)C1)c1cc(-c2ccccc2)no1 [Example 29, N-(cis-3-(4-(hydroxymethyl)-1H-1,2,3-triazol-1-yl)cyclobutyl)-3-phenylisoxazole-5-carboxamide]
[1]
  Ieq: ** (**indicates activity ≥200% of VX-809 (1 uM) with compound at 10 uM and VX-809 at 1 uM)

## C[C@@H](O)c1nnc([C@H]2C[C@H](NC(=O)c3cc(-c4ccc(F)cc4)no3)C2)o1 [Example 36, 3-(4-fluorophenyl)-N-(trans-3-(5-((R)-1-hydroxyethyl)-1,3,4-oxadiazol-2-yl)cyclobutyl)isoxazole-5-carboxamide]
[1]
  Ieq: * (* indicates activity 100-200% of VX-809 (1 uM) with compound at 10 uM and VX-809 at 1 uM)

## O=C(NCC1CCCO1)c1cc(-c2ccccc2)co1 (stereo not shown) [Example 9, 4-phenyl-N-((tetrahydrofuran-2-yl)methyl)furan-2-carboxamide]
[2]
  Ieq: ++ (++ indicates activity ≥25% run at 10 uM of VX-809 at 1 uM)

## C[C@H](O)c1cn(C[C@H]2C[C@@H](NC(=O)c3cc(-c4ccccc4)no3)C2)nn1 [Example 58, 3-Phenyl-N-[(1s,3s)-3-([4-[(1S)-1-hydroxyethyl]-1H-1,2,3-triazol-1-yl]methyl)cyclobutyl]-1,2-oxazole-5-carboxamide]
[1]
  Ieq: * (* indicates activity 100-200% of VX-809 (1 uM) with compound at 10 uM and VX-809 at 1 uM)

## O=C(NCC1CCCO1)c1cc(-c2ccccc2)no1 (stereo not shown) [Example 2, 3-phenyl-N-((tetrahydrofuran-2-yl)methyl)isoxazole-5-carboxamide]
[2]
  Ieq: ++ (++ indicates activity ≥25% run at 10 uM of VX-809 at 1 uM)

## C[C@@H](O)c1nnc([C@H]2C[C@H](NC(=O)c3onc(-c4ccccc4)c3F)C2)o1 [Example 50, 4-Fluoro-3-phenyl-N-[(1r,3r)-3-[5-[(1R)-1-hydroxyethyl]-1,3,4-oxadiazol-2-yl]cyclobutyl]-1,2-oxazole-5-carboxamide]
[1]
  Ieq: * (* indicates activity 100-200% of VX-809 (1 uM) with compound at 10 uM and VX-809 at 1 uM)

## C[C@H](O)c1cnnn1C[C@H]1C[C@@H](NC(=O)c2cc(-c3ccccc3)no2)C1 [Example 57, 3-Phenyl-N-[(1s,3s)-3-([5-[(1S)-1-hydroxyethyl]-1H-1,2,3-triazol-1-yl]methyl)cyclobutyl]-1,2-oxazole-5-carboxamide]
[1]
  Ieq: ** (**indicates activity ≥200% of VX-809 (1 uM) with compound at 10 uM and VX-809 at 1 uM)

## O=C(N[C@H]1C[C@@H](n2nncc2CO)C1)c1cc(-c2ccccc2)no1 [Example 28, N-(cis-3-(5-(hydroxymethyl)-1H-1,2,3-triazol-1-yl)cyclobutyl)-3-phenylisoxazole-5-carboxamide]
[1]
  Ieq: ** (**indicates activity ≥200% of VX-809 (1 uM) with compound at 10 uM and VX-809 at 1 uM)

## C[C@@H](O)c1nnc(C[C@H]2C[C@@H](NC(=O)c3cc(-c4ccc(F)cc4)no3)C2)s1 [Example 43, 3-(4-Fluorophenyl)-N-[(1s,3s)-3-([5-[(1R)-1-hydroxyethyl]-1,3,4-thiadiazol-2-yl]methyl)cyclobutyl]-1,2-oxazole-5-carboxamide]
[1]
  Ieq: ** (**indicates activity ≥200% of VX-809 (1 uM) with compound at 10 uM and VX-809 at 1 uM)

## C[C@@H](O)c1nnc(C[C@H]2C[C@H](NC(=O)c3cc(-c4ccc(F)cc4)no3)C2)s1 [Example 44, 3-(4-Fluorophenyl)-N-[(1r,3r)-3-([5-[(1R)-1-hydroxyethyl]-1,3,4-thiadiazol-2-yl]methyl)cyclobutyl]-1,2-oxazole-5-carboxamide]
[1]
  Ieq: ** (**indicates activity ≥200% of VX-809 (1 uM) with compound at 10 uM and VX-809 at 1 uM)

## O=C(NCCN1CCOCC1)c1cc(-c2ccccc2)no1 [Example 3, N-(2-morpholinoethyl)-3-phenylisoxazole-5-carboxamide]
[2]
  Ieq: ++ (++ indicates activity ≥25% run at 10 uM of VX-809 at 1 uM)
